In patent US10023579B2, “Pyrrolopyrimidine compounds, use as inhibitors of the kinase LRRK2, and methods for preparation thereof” (Southern Research Institute, priority 2015, dated 2018) one finds IC50 data, which are given here for four compounds.

Assay [1] concerns the target T1, WT-LRRK2 (recombinant GST-LRRK2 delta970) (Homo sapiens, UniProt Q5S007).
T1 construct: Recombinant GST-LRRK2 (delta970); GST (N); host or cells: baculovirus-infected Sf9 insect cells
The assay is described as follows: LRRK2 kinase assay, wild type (32P radiometric, peptide substrate). The format is biochemical. The conditions noted are these: WT-LRRK2 30 nM, ATP ~92 μM (Km), 30 min at 30° C. The method, then: (§1) Compounds were assessed for inhibition of LRRK2 inhibition using the following procedure. Recombinant GST-LRRK2 (delta970) purified from baculovirus infected insect cells (SF9), at least 90% pure and either wild-type sequence or bearing the pathogenic G2019S mutation, was combined into a kinase buffer at 30 nM concentration. Kinase buffer consists of 50 mM Tris HCl pH 7.4, 1 mM EDTA, and 50 μM peptide substrate (amino acid sequence […]). Experimental compounds or control (no compound) were added at desired concentrations in DMSO and water, where final concentration of DMSO in kinase reactions was 0.1% for all drug concentrations. […] Reactions were incubated at 1400 RPM at 30° C. for 30 min. and then spotted in triplicate directly onto a slot-blot apparatus fitted with phospho-cellulose paper and allowed to dry. Each slot was then washed with 10 mM phosphoric acid buffer until beta-radiation could not be detected in eluted wash buffer, usually ˜1 mL per slot. Paper within each slot were excised and radiation measured by liquid scintillation.

Assay [2] addresses T2, G2019S-LRRK2 (recombinant GST-LRRK2 delta970) (Homo sapiens, UniProt Q5S007, G2019S).
T2 construct: Recombinant GST-LRRK2 (delta970); GST (N); host or cells: baculovirus-infected Sf9 insect cells
The assay is described as follows: LRRK2 kinase assay, G2019S mutant (32P radiometric, peptide substrate). The format is biochemical. The conditions noted are these: G2019S-LRRK2 30 nM, ATP ~52 μM (Km), 30 min at 30° C. The method, then:
as §1

T1 sequence (Q5S007 970-2527 limits assumed): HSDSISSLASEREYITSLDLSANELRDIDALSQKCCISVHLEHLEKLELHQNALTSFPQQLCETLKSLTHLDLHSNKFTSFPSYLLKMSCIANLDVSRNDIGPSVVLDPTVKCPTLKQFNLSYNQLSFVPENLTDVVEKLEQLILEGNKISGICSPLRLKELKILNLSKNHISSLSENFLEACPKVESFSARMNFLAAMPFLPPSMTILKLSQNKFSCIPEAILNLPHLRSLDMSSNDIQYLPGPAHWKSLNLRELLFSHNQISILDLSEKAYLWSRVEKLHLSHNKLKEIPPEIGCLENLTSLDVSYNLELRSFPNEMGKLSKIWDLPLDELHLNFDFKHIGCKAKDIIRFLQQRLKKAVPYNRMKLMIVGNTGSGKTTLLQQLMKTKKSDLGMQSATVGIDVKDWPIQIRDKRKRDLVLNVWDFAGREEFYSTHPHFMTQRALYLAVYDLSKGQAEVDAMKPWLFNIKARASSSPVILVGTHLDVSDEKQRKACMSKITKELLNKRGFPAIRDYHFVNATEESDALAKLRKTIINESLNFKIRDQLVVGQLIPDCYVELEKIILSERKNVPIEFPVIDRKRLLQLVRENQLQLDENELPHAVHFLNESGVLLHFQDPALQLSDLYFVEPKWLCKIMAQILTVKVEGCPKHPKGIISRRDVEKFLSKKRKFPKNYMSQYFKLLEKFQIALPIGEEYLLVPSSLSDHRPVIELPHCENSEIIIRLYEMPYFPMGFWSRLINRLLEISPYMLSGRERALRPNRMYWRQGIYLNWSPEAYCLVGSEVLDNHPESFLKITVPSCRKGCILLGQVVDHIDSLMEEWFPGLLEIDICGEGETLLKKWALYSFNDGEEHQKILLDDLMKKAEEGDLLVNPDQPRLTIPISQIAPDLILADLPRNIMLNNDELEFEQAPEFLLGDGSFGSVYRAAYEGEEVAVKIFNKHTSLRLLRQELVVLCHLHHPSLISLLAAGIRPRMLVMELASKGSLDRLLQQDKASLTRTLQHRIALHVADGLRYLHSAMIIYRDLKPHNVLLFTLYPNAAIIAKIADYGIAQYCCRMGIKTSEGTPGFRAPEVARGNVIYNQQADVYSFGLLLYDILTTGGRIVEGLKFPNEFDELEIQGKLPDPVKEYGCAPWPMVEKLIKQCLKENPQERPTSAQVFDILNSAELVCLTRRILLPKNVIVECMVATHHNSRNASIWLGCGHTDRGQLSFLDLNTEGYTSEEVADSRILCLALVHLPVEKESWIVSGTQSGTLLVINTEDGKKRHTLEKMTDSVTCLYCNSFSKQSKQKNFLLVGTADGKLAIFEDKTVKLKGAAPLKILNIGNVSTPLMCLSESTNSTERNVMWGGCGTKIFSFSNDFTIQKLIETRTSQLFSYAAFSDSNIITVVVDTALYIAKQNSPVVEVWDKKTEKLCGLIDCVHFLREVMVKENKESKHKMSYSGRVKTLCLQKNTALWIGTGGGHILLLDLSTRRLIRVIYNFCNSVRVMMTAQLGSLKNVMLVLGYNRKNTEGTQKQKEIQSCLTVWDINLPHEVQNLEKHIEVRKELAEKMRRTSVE
T2 sequence (Q5S007 970-2527 G2019S limits assumed): as the sequence (Q5S007 970-2527 limits assumed) above, with G1050S counted along it

A word on the IC50: it is the concentration that inhibits the measured activity by half. Consider `Cc1c(Nc2nc(N[C@H]3CCc4ccccc43)c3cc[nH]c3n2)cnn1C(C)C(=O)N1CCN(C)CC1` (stereo partly drawn) [Compound 18, 2-(4-((4-(((S)-2,3-dihydro-1H-inden-1-yl)amino)-7H-pyrrolo[2,3-d]pyrimidin-2-yl)amino)-5-methyl-1H-pyrazol-1-yl)-1-(4-methylpiperazin-1-yl)propan-1-one], for which the IC50 was 0.037 µM in assay [1] and 0.049 µM in assay [2].

In the case of `Cc1c(Nc2nc(N[C@@H](C)C3CCCCC3)c3cc[nH]c3n2)cnn1C(C)C` [Compound 25, (S)-N4-(1-cyclohexylethyl)-N2-(1-isopropyl-5-methyl-1H-pyrazol-4-yl)-7H-pyrrolo[2,3-d]pyrimidine-2,4-diamine], the IC50 came out at 0.042 µM in assay [1] and 0.043 µM in assay [2].

With `CC(C)n1cc(Nc2nc(N[C@@H](C)c3ccccc3)c3cc[nH]c3n2)cn1` [Compound 22, (S)-N2-(1-isopropyl-1H-pyrazol-4-yl)-N4-(1-phenylethyl)-7H-pyrrolo[2,3-d]pyrimidine-2,4-diamine], the IC50 in assay [1] came out at 0.037 µM; in assay [2], 0.056 µM.

On to `Cc1cc(Nc2nc(N[C@@H](C)C3CC3)c3cc[nH]c3n2)n[nH]1` [Compound 36, (S)-N4-(1-cyclopropylethyl)-N2-(5-methyl-1H-pyrazol-3-yl)-7H-pyrrolo[2,3-d]pyrimidine-2,4-diamine], for which the figures for the IC50 in assay [1] and in assay [2] were 0.038 µM and 0.044 µM, respectively.
